Legend:
[1] = test system: CSPG production by astrocytes; assay: Western blot of astrocyte conditioned medium, MAB2030 (chondroitin sulfate GAG stubs); format: cell-based, mouse; settings: for effect on CSPG production by astrocytes: astrocyte conditioned media, 50 μM, 48 hours; for Reduce CSPG production: astrocytes, significance class
Source text: Astrocytes are major producers of CSPGs following injury in the CNS [Jones, L. L., Margolis, R. U. & Tuszynski, M. H. The chondroitin sulfate proteoglycans neurocan, brevican, phosphacan, and versican are differentially regulated following spinal cord injury. Experimental Neurology 182, 399-411 (2003); Tang, X., Davies, J. E. & Davies, S. J. Changes in distribution, cell associations, and protein expression levels of NG2, neurocan, phosphacan, brevican, versican V2, and tenascin-C during acute to chronic maturation of spinal cord scar tissue. […] The Journal of neuroscience: the official journal of the Society for Neuroscience 20, 2427-2438 (2000); McKeon, R. J., Jurynec, M. J. & Buck, C. R. The chondroitin sulfate proteoglycans neurocan and phosphacan are expressed by reactive astrocytes in the chronic CNS glial scar. The Journal of neuroscience: the official journal of the Society for Neuroscience 19, 10778-10788 (1999); Haas, C. A., Rauch, U., Thon, N., Merten, T. & Deller, T. Entorhinal cortex lesion in adult rats induces the expression of the neuronal chondroitin sulfate proteoglycan neurocan in reactive astrocytes. The Journal of neuroscience: the official journal of the Society for Neuroscience 19, 9953-9963 (1999)] and they may help drive progression of disability in a model of progressive MS [Mayo, L. et al. Regulation of astrocyte activation by glycolipids drives chronic CNS inflammation. Nature medicine 20, 1147-1156 (2014)]. Therefore astrocytes were used as model cells to determine the ability of the sugar analogs to reduce synthesis of CSPGs. Since CSPGs are exported out of cells, the conditioned media from analog-treated astrocytes were probed by Western blots (FIG. 4). We used antibodies to both the stubs of chondroitin sulfate GAGs attached to the core protein (MAB2030) and to intact 4-sulfated chondroitin sulfate sidechains (2H6) (FIG. 4a). Particularly, we used the 2H6 antibody to label intact 4-sulfated chondroitin sulfate sidechains, and the MAB2030 antibody to detect the stubs of chondroitin sulfate GAGs attached to the core protein. […] 1998, 160 (8), 3812-3819. Poole Poole C. A.; Glant T. T.; Schofield J. R.; Chondrons from articular cartilage. (IV). Immunolocalization of proteoglycan epitopes in isolated canine tibial chondrons. J. Histochem. Cytochem. 1991, 39 (9), 1175-1187].
Astrocytes were plated in uncoated 6-well plates (3 replicate wells per treatment) at 1×10^6 cells/well in mixed glial media, and incubated at 5% CO2 and 37° C. Astrocytes were treated with compounds at 50 μM in AIM-V media for 48 hours. Media was pooled from 3 replicate wells in 15 ml 100K cutoff centricon tubes (EMD Millipore, #UFC905008), which were spun on an ultracentrifuge at 5000× g for 2 cycles of 10 minutes each. When harvested, the cell lysate was kept on ice for 5 minutes with 250 μL of RIPA buffer (ThermoFisher Scientific #89900) containing proteinase inhibitor, and then collected and centrifuged at 14000 g for 5 minutes. Total protein was quantified using a Bradford assay. Conditioned media that were to be probed for chondroitin 4-sulfate GAGs (Millipore, #MAB2030) were first digested with 0.2 U/ml chondroitinase ABC for overnight at 37° C. to remove chondroitin sulfate sidechains. Blots that were to be probed with CSA (2H6, Cosmo) or CS56 (Abcam #ab11570) were not exposed to chondroitinase ABC. Samples were heat denatured with NuPAGE® LDS Sample buffer at 70° C. for 10 minutes and then loaded into 3-8% tris-acetate pre-cast gels (ThermoFisher, #EA0478BOX). The gels were electrophoresed at a constant 150 V for 90 minutes and transferred to a […] polyvinylidene fluoride membrane at a constant 250 mA for 60 minutes. The membranes were blocked for one hour with 10% skim milk in Tris-buffered saline (TBS; 0.9% NaCl, 10 mM Tris-HCl, pH 7.5) containing 0.5% Tween 20 (TBS-T). Primary antibodies were added in 3% skim milk and incubated overnight at 4° C. […]

splenocytes = assay: Splenocyte thymidine proliferation assay (anti-CD3/anti-CD28); format: cell-based, mouse; settings: for Reduce T cell proliferation: activated splenocytes, significance class
Experimental: It was assessed whether the glucosamine analogs have immunomodulatory properties on splenocytes isolated in culture. T cells within the splenocyte pool were polyclonally activated with anti-CD3 and anti-CD28 antibodies in the presence of compounds for 48 hours, and proliferation was determined by the uptake of tritiated thymidine and expressed as counts per minute. The relative change in proliferation of treated versus control splenocytes was taken in order to rank the compounds across multiple independent experiments (FIG. 8a).
The spleens were isolated from 8-10-week-old female C57BL/6 mice and homogenized. The cells were isolated by Ficoll gradient and spun for 30 min at 1,800 r.p.m. The cell suspension was removed and the cells were washed once with PBS. The cell pellet was subsequently re-suspended in Roswell Park Memorial Institute media containing 10% fetal bovine serum, 1% penicillin/streptomycin, 1% sodium pyruvate and 1% L-glutamine. Trypan blue exclusion was used to count live cells, and the cells were plated at 2.5×10^5 cells per well in a round-bottom 96-well plate and activated with 1,000 ng/ml plate-bound anti-CD3 and 1,000 ng/ml anti-CD28 suspended in media to preferentially activate T lymphocytes. Compounds were added at final concentrations of 25 μM. The cells were kept at 37° C. and 5% CO2 for 30 h, after which 10 μl/well (1 μCi per well) of 3H-thymidine was added for 18 h. The cells containing thymidine were harvested onto filter mats using a cell harvester and mats were allowed to dry for 24 h. The results were read by liquid scintillation counts.

COC[C@H]1OC(OC(C)=O)[C@H](NC(C)=O)[C@@H](OC)[C@@H]1F (stereo partly drawn) [Compound 5, 2-Acetamido-1-O-acetyl-2,4-dideoxy-4-fluoro-3,6-di-O-methyl-α/β-D-glucopyranose]
effect on CSPG production by astrocytes [1]: did not affect CSPG synthesis | Reduce CSPG production [1]: n.s. | Reduce T cell proliferation (splenocytes): n.s.

CO[C@H]1[C@H](F)[C@@H](COC(C)=O)OC(OC(C)=O)[C@@H]1NC(C)=O (stereo partly drawn) [Compound 6, 2-Acetamido-1,6-di-O-acetyl-2,4-dideoxy-4-fluoro-3-O-methyl-α/β-D-glucopyranose]
effect on CSPG production by astrocytes [1]: did not affect CSPG synthesis | Reduce CSPG production [1]: n.s. | Reduce T cell proliferation (splenocytes): n.s.

CC(=O)OC[C@H]1OC(OC(C)=O)[C@H](NC(=O)C(F)(F)F)[C@@H](OC(C)=O)[C@@H]1F (stereo partly drawn) [Compound 9, 1,3,6-Tri-O-acetyl-2,4-dideoxy-4-fluoro-2-trifluroacetamido-α/β-D-glucopyranose]
effect on CSPG production by astrocytes [1]: did not lower CSPG production in astrocytes | Reduce CSPG production [1]: n.s. | splenocyte proliferation (splenocytes; 25 μM, 48 hours): reduced splenocyte proliferation | Reduce T cell proliferation (splenocytes): *** (***p < 0.001)

CC(=O)N[C@H]1C(OC(C)=O)O[C@H](COC(C)=O)[C@H](Cl)[C@@H]1OC(C)=O (stereo partly drawn) [Compound 15, 2-Acetamido-1,3,6-tri-O-acetyl-2,4-dideoxy-4-chloro-α/β-D-galactopyranoside]
Reduce CSPG production [1]: n.s. | Reduce T cell proliferation (splenocytes): * (*p < 0.05)

O[C@@H]1[C@@H](O)[C@H](OCc2ccccc2)OC[C@H]1O [Compound 19, reference compound]
effect on CSPG production by astrocytes [1]: CSPG production was not impacted | Reduce CSPG production [1]: n.s. | Reduce T cell proliferation (splenocytes): n.s.

CC(=O)O[C@@H]1[C@@H](OC(C)=O)[C@H](OCCO)OC[C@H]1OC(C)=O [Compound 20, 2-Hydroxyethyl 2,3,4-tri-O-acetyl-β-D-xylopyranoside]
effect on CSPG production by astrocytes [1]: CSPG production was not impacted

CC(=O)O[C@@H]1[C@@H](OC(C)=O)[C@H](OCCOCCOCCOCCO)OC[C@H]1OC(C)=O [Compound 21, 2-(2-(2-(2-Hydroxyethoxy)ethoxy)ethoxy)ethyl 2,3,4-tri-O-acetyl-β-D-xylopyranoside]
effect on CSPG production by astrocytes [1]: effective at reducing CSPGs

CC(=O)O[C@@H]1[C@@H](OC(C)=O)[C@H](OCCS(=O)(=O)[O-])OC[C@H]1OC(C)=O.[Na+] [Compound 22, 2-Sulfoethyl 2,3,4-tri-O-acetyl-β-D-xylopyranoside, sodium salt]
effect on CSPG production by astrocytes [1]: CSPG production was not impacted

CC(=O)O[C@@H]1[C@@H](OC(C)=O)[C@@H](OCCCCCCS(=O)(=O)[O-])OC[C@H]1OC(C)=O.[Na+] [Compound 24, 6-Sulfohexyl 2,3,4-tri-O-acetyl-α-D-xylopyranoside, sodium salt]
effect on CSPG production by astrocytes [1]: did not act as an inhibitor

CC(=O)O[C@@H]1OC[C@@H](F)[C@H](OC(C)=O)[C@H]1OC(C)=O [Compound 28, 1,2,3-tri-O-acetyl-4-deoxy-4-fluoro-β-D-xylopyranose]
effect on CSPG production by astrocytes [1]: did not reduce CSPG production

CC(=O)N[C@H]1C(O)O[C@H](CO)[C@@H](O)[C@@H]1O (stereo partly drawn) [GlcNAc, N-Acetyl-D-glucosamine, reference compound]
effect on CSPG production by astrocytes [1]: did not affect CSPG production

— patent US12600740B2, “Fluorinated N-acetyl glucosamine analogs and xylose derivatives” (UTI Limited Partnership, priority 2018, dated 2026)
